Reference: patent US10501518B2 (priority 2013, dated 2019)

How the values were obtained:
[1] = biological target: T1, trypsin (Bos taurus, UniProt P00760); assay: Protease stability (trypsin, HPLC assay); format: in vitro ADME, bovine; conditions: 40 μM peptide, 5 μg/mL trypsin, TBS, room temperature
T1 construct: purchased Sigma Aldrich (St. Louis, Mo.); host or cells: bovine pancreas
T1 sequence (P00760 24-246): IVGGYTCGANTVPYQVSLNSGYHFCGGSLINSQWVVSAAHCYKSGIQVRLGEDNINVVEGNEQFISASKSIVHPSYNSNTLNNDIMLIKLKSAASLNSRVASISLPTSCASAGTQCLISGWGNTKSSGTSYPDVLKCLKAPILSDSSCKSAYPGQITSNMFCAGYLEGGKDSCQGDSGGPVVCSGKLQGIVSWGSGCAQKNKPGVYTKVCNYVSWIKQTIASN
Description: Locations of β^3 residues in B5 and D6 are indicated by highlighted residues. Solutions of 40 μM peptide in TBS were incubated at room temperature with 5 μg/mL trypsin. Vertical lines indicate observation by MALDI-MS of one or both products consistent with hydrolysis of the backbone amide bond between the noted residues. […] Each data point represents the average of measurements from duplicate experiments, with error bars corresponding to the standard deviation.
An HPLC assay was used to assess proteolytic stability.^30, 32 Peptide concentration was determined by UV-Vis spectroscopy (calculated from the UV-vis absorption at 280 nm, ε280 nm=5,690 M^−1 cm^−1 for all peptides except D6 and D7, ε280 nm=11,380 M^−1 cm^−1 based on an extinction coefficient for the tryptophan sidechain chromophore of 5,690 M^−1 cm^−1).^33 Peptide stock solutions were prepared in degassed water to a concentration of 200 μM. […] A portion (75 μL) of the quenched reaction mixture was injected onto an analytical RP-HPLC (see peptide synthesis and purification section above), and peaks were analyzed. The time course of peptide degradation was experimentally determined by integrating the area of the peak corresponding to the non-hydrolyzed peptide in a series of HPLC traces, with duplicate proteolysis reactions being used to generate error bars corresponding to the standard deviation. […]

[2] = biological target: T2, PTHR (Homo sapiens, UniProt Q03431); assay: cAMP induction potency, N-terminal modifications and cyclic constraints (Tables 9, 10, 13); format: cell-based; conditions: Table 9
T2 construct: expressed in transfected cells
T2 sequence (Q03431 27-593): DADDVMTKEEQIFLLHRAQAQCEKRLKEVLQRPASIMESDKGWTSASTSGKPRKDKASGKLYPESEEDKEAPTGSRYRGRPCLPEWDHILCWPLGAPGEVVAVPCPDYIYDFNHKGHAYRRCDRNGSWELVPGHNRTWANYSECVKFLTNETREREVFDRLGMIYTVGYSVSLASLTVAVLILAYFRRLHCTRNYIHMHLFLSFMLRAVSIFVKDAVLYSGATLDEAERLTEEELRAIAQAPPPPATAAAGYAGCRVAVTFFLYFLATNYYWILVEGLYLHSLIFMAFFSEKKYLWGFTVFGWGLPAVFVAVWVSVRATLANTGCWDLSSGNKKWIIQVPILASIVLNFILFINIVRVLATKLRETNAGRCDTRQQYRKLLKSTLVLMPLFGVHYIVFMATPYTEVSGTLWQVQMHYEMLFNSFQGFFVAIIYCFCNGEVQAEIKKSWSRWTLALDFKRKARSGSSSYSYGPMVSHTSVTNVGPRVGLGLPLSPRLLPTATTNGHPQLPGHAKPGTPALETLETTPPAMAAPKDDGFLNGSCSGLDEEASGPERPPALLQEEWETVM
Description: For cAMP dose-response assays, monolayers of confluent HEK 293 cells were pre-incubated with buffer containing d-luciferin (0.5 mM) in 96 well plates at room temperature until a stable baseline level of luminescence was established (30 min). Varying concentrations of agonist were then added, and the time course of luminescence response was recorded using a Perkin Elmer plate reader following α/β-peptide addition.

CC[C@H](C)[C@H](NC(=O)[C@H](CCC(=O)O)NC(=O)[C@H](CO)NC(=O)[C@@H](NC(=O)[C@@H](N)CO)C(C)C)C(=O)N[C@@H](CCC(N)=O)C(=O)N[C@@H](CC(C)C)C(=O)N[C@@H](CCSC)C(=O)N[C@@H](Cc1cnc[nH]1)C(=O)N[C@@H](CC(N)=O)C(=O)N[C@@H](CC(C)C)C(=O)NCC(=O)N[C@@H](CCCCN)C(=O)N[C@@H](Cc1cnc[nH]1)C(=O)N[C@@H](CC(C)C)C(=O)N[C@@H](CC(N)=O)C(=O)N[C@@H](CO)C(=O)N[C@@H](CCSC)C(=O)N[C@@H](CCC(=O)O)C(=O)N[C@@H](CCCN=C(N)N)C(=O)N[C@H](C(=O)N[C@@H](CCC(=O)O)C(=O)N[C@@H](Cc1c[nH]c2ccccc12)C(=O)N[C@@H](CC(C)C)C(=O)N[C@@H](CCCN=C(N)N)C(=O)N[C@@H](CCCCN)C(=O)N[C@@H](CCCCN)C(=O)N[C@@H](CC(C)C)C(=O)N[C@@H](CCC(N)=O)C(=O)N[C@@H](CC(=O)O)C(=O)N[C@H](C(=O)N[C@@H](Cc1cnc[nH]1)C(=O)N[C@@H](CC(N)=O)C(=O)N[C@@H](Cc1ccccc1)C(=O)O)C(C)C)C(C)C [PTH(1-34), reference compound]
proteolysis by trypsin [1]: Proteolysis was observed at all predicted trypsin cut sites

CC[C@H](C)[C@H](NC(=O)[C@H](CCC(=O)O)NC(=O)[C@H](CO)NC(=O)[C@@H](NC(=O)[C@@H](N)CO)C(C)C)C(=O)N[C@@H](CCC(N)=O)C(=O)N[C@@H](CC(C)C)C(=O)N[C@@H](CCSC)C(=O)N[C@@H](Cc1cnc[nH]1)C(=O)N[C@@H](CC(N)=O)C(=O)N[C@@H](CC(C)C)C(=O)NCC(=O)N[C@@H](CCCCN)C(=O)N[C@H](CC(=O)N[C@@H](CC(C)C)C(=O)N[C@@H](CC(N)=O)C(=O)N[C@@H](CO)C(=O)N[C@@H](CCSC)CC(=O)N[C@@H](CCC(=O)O)C(=O)N[C@@H](CCCNC(=N)N)C(=O)N[C@H](C(=O)N[C@@H](CCC(=O)O)CC(=O)N[C@@H](Cc1c[nH]c2ccccc12)C(=O)N[C@@H](CC(C)C)C(=O)N[C@@H](CCCNC(=N)N)C(=O)N[C@@H](CCCCN)CC(=O)N[C@@H](CCCCN)C(=O)N[C@@H](CC(C)C)C(=O)N[C@@H](CCC(N)=O)C(=O)N[C@@H](CC(=O)O)CC(=O)N[C@H](C(=O)N[C@@H](Cc1cnc[nH]1)C(=O)N[C@@H](CC(N)=O)C(=O)N[C@H](CC(N)=O)Cc1ccccc1)C(C)C)C(C)C)Cc1c[nH]c2ccccc12 [D6]
Fold PTH [2]: 2.1
EC50 ([2]; read-out: EC50, nM (cAMP induction potency)): 0.17 ± 0.05 nM
proteolysis by trypsin [1]: poorer substrate than is the α-peptide
